Measurements taken from patent US9265845B2, “Imaging methods using engineered integrin binding peptides” (The Board of Trustees of the Leland Stanford Junior …, priority 2006, dated 2016).
Entries after “also recorded” stand apart in the source; their conditions may differ. Where two headings read alike, the source gives them in different places. Positions of bridges follow the written chain, without caps; N, C: chain ends. Residues, ends and D or L forms follow the SMILES beside them. No end group written: not given here.

What was measured:
U87MG tumor = experiment: MicroPET imaging and biodistribution of radiolabeled peptides in U87MG tumor-bearing mice; type: in vivo, mouse; conditions: radiolabeled peptides, U87MG tumor-bearing mice
Outline: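 Female athymic nude mice carrying subcutaneous U87MG xenografts (8–10 mm) received ~100 μCi 64Cu-DOTA peptides i.v. (tail vein); static microPET scans under 2% isoflurane. %ID/g obtained from ROIs on decay-corrected images assuming 1 g/mL density, without attenuation correction. Biodistribution measured by γ-counting of excised tissues, reported as %ID/g mean±SD.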

αvβ3 integrin [1] = molecular target: T1, αvβ3 integrin (Homo sapiens, UniProt P05106+P06756); experiment: Yeast-displayed peptide binding to soluble αvβ3 integrin, flow cytometry; conditions: yeast-displayed peptides
Procedure: The yeast display construct shown in FIG. 1A has the general orientation: Aga2-HA-engineered knottin—c-myc epitope, with the c-myc epitope at the carboxy terminus of the peptide. […] Bound integrin is detected with an anti-integrin antibody, labeled with FITC.
Below is a typical protocol to label a yeast library samples for sorting by flow cytometry (FACS): • 1. Want 2×10^6 cells, OD600 of […] • 2. Add 1 mL PBS/BSA (phosphate buffered saline containing 1 mg/mL bovine serum albumin) to wash cells • 3. Spin down cells 3 min at 8000 RPM • 4. Remove supernatant using vacuum • 5. Re-suspend in 40 μL PBS/BSA containing proper amount of integrin (100 nM [2.5 μL of stock αvβ3]; no anti-cmyc at this point) • 6. Incubate for 1.5 h at r.t (w/tumbling) • 7. Add 1:250 dilution of (chick anti-cmyc) to labeling solution • 8. […] Incubate 1 h at 4° C. (w/tumbling) • 10. Keep on ice after this step. • 11. Spin down cells 3 min at 8000 RPM, 4° C. and vacuum supernatant • 12. Repeat wash steps 2-4 • 13. Re-suspend in 40 μL PBS/BSA containing proper amount of secondary labels (secondary labeling is simultaneous) • i. Anti-integrin Ab (FITC conj): 1:25 dilution+Anti-chick (Alexa 555): 1:100 dilution • ii. Positive control: Anti-chick (Alexa 555): 1:100 dilution (for FACS compensation) • iii. Positive control: Anti-chick (Alexa 488): 1:100 dilution (for FACS compensation) • 14. Incubate on ice 30 min and keep in dark (lid on ice bucket) • 15. Spin down cells at 3 min at 8000 RPM, 4° C. and vacuum supernatant • 16. Repeat steps 2-4: Add 1 mL PBS/BSA, pellet cells, vacuum supernatant • 17. Leave pelleted cells on ice until use. Fluorescent Cell Sorting
Commercially available flow cytometers can measure fluorescence emissions at the single-cell level at four or more wavelengths, at a rate of approximately 50,000 cells per second (Ashcroft and Lopez, 2000). Typical flow cytometry data are shown in FIG. 4-7, in which yeast have been labeled with two different color fluorescent probes to measure protein expression levels and bound soluble ligand (in this case integrin receptor). A ‘diagonal’ population of cells results due to variation in protein expression levels on a per cell basis: cells that express more protein will bind more ligand. The equilibrium binding constant (Kd) can be determined by titration of soluble ligand, and the dissociation rate constant (koff) can be measured through competition binding of unlabeled ligand. With yeast, a monodispersity of tethered proteins exists over the cell surface, and soluble ligand are used for binding and testing, such that avidity effects are not observed, unlike other display methods using immobilized ligands. To date, the properties of most proteins expressed on the yeast cell surface mimic what is seen in solution in terms of stability and binding affinity (Bader et al., 2000; Feldhaus et al., 2003; Holler et al., 2000; VanAntwerp and Wittrup, 2000). See, also, Weaver-Feldhaus et al., “Directed evolution for the development of conformation-specific affinity reagents using yeast display,” Protein Engineering Design and Selection Sep. 26, 2005 18(11):527-536.
Cell sorting was carried out on a FACSVantage (BD Biosciences) multiparameter laser flow cytometer and cell sorter. Before sorting, fluorescent staining was carried out as described above, so that analysis of integrin binding and c-myc expression levels were detected, as described above. […]

[2] = tested on: subcutaneous U87MG glioblastoma tumors; experiment: In vivo optical imaging of Cy5.5-labeled peptides in U87MG xenograft mice; set-up: species or system mouse
Procedure: FIG. 8A is a series of 4 pictures showing in vivo imaging of Cy5.5-labeled polypeptides in mice. 1.5 nmol of Cy5.5-labeled EETI-RGD peptide 2.5D or other indicated peptide was injected by tail vein into U87MG glioblastoma xenograft mouse models and imaged at various time points post injection. Arrows indicate the position of tumors. […] Cy5.5-labeled FN-RDG negative control (bottom line, open squares) indicates background levels.
Whole-body imaging of subcutaneous mouse xenografts were imaged with the IVIS 200 system (Xenogen) and quantified with Living Image 2.50.1 software.

U87MG glioblastoma cells [3] = experiment: Blocking of U87MG cell adhesion to vitronectin-coated plates; type: cell-based; conditions: vitronectin-coated wells
Excerpt: (§1) The present engineered peptides may be used in a variety of ways. If the peptides are attached to a surface, they may be used to attract/recruit cells to grow on the surface. For example, the present peptides may be applied to prosthetic devices, implants, bone grafts, and the like to promote tissue growth and healing at the site. They may be attached to culture dishes and promote attachment and differentiation of cells in culture. In addition, the present engineered peptides may be used to modulate cell binding to selected integrins such as α5β1, αvβ3 and αvβ5, particularly αvβ3, by adding the peptides to a cell culture to prevent cells expressing these integrins from adhering to a substrate. […] Also, the present 2.5F, 2.5D and 1.5B peptides were tested for blocking adhesion of U87MG glioblastoma cells to fibronectin-coated plates.
(§2) In another experiment, the ability of engineered knottin peptides to block U87MG cell adhesion to vitronectin- and fibronectin-coated microtiter plates. Vitronectin is a natural ligand for several integrins, including αvβ3 and αvβ5. The RGD-containing peptides were all able to inhibit U87MG cell adhesion to vitronectin-coated plates in a dose-responsive manner. […] Fibronectin also binds to several integrins, (including αvβ3 and α5β1), but the α5β1 integrin receptor is generally selective for fibronectin.
Whether the engineered AgRP peptides could block vitronectin-mediated adhesion to the U87MG cells was tested using an analogous assay. […] The AgRP peptides may not effectively block U87MG adhesion compared to the K562-αvβ3 cells because the αvβ5 integrins co-expressed on the surface of the U87MG cells could also contribute to vitronectin-mediated adhesion and compensate for the loss of αvβ3 integrin function.

[4] = molecular target: T2, αvβ3 integrin on U87MG glioblastoma cells (Homo sapiens, UniProt P05106+P06756); experiment: 125I-echistatin competition binding to U87MG glioblastoma cells; conditions: read-out: IC50, competition with 125I-echistatin, U87MG tumor cells
T2 construct: host or cells: U87MG glioblastoma cells
Procedure: FIG. 9 is a graph showing normalized competition plotted against peptide concentration in an integrin-binding assay on U87MG glioblastoma cells.
U87MG glioblastoma cells, which express ˜10^5 αvβ3 integrin receptors per cell, were used for these studies. […] An EETI-based polypeptide with a scrambled RDG amino acid sequence, designated FN-RDG, served as a negative control.
Half-maximal inhibitory concentrations (IC50) […] of data measured on at least three separate days. Data for unlabeled and Cy5.5-labeled peptides are shown. Site-specific labeling of RGD miniproteins with a near-infrared optical imaging probe: The free N-terminal amine of our polypeptides was used for site-specific attachment of Cy5.5, a near infrared imaging probe.
An αvβ3 integrin receptor binding assay is performed to determine the relative affinities of the mock-PET tracers compared to their unlabeled polypeptides. Briefly, 2×10^5 U87MG glioblastoma cells are incubated with 0.06 nM ^125I-echistatin in integrin binding buffer (25 mM Tris-HCl, pH 7.4, 150 mM NaCl2 1 mM CaCl2 1 mM MgCl2, 1 mM MnCl2, 0.1% BSA), in the presence of increasing concentrations of mock-PET tracers at room temperature. After incubation for 3 h, cells are pelleted by centrifugation at 1500 RPM and washed three times in binding buffer to remove unbound ligands. The radioactivity remaining in the cell pellet is measured by γ counting. IC50 values are determined by plotting the % competition and using a four-point binding equation (Kaleidagraph) to fit the data.

αvβ3 integrin [5] = molecular target: T1, αvβ3 integrin; conditions: cited from earlier work
K562-αvβ3 cells = experiment: Inhibition of vitronectin-mediated adhesion of K562-αvβ3 cells; type: cell-based; conditions: vitronectin-coated microtiter wells
Procedure: To determine whether the engineered AgRP peptides could inhibit cell adhesion mediated by vitronectin, the primary ligand for αvβ3 integrin, K562-αvβ3 cells were incubated with varying concentrations of peptides in microtiter wells coated with vitronectin to determine the ability of the peptides to inhibit cell adhesion. […] This difference may be a result of multivalent interactions between the cell surface αvβ3 integrins and the immobilized vitronectin, thereby making it more difficult for the peptides to compete.

U87MG glioblastoma cells [6] = experiment: Blocking of U87MG cell adhesion to fibronectin-coated plates; type: cell-based
Excerpt: as §1, §2

α5β1 integrin = α5β1 integrin (Homo sapiens, UniProt P05556+P08648); experiment: Competition of 125I-echistatin to detergent-solubilized plate-coated integrin; type: binding; conditions: 0.06 nM 125I echistatin, 5 nM and 50 nM peptide
Outline: (§3)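 Detergent-solubilized integrins were coated on plates. Displacement of 0.06 nM 125I-echistatin by unlabeled peptide was measured at 5 nM and 50 nM. Experiments were run in triplicate.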

αiibβ3 integrin = αiibβ3 integrin (Homo sapiens, UniProt P05106+P08514); experiment: as above; type: binding; conditions: 0.06 nM 125I echistatin, 5 nM and 50 nM peptide
Outline: as §3

αvβ3 integrin [7] = molecular target: T1, αvβ3 integrin; experiment: as above; type: binding; conditions: 0.06 nM 125I echistatin, 5 nM and 50 nM peptide
Outline: as §3

αvβ5 integrin = αvβ5 integrin (Homo sapiens, UniProt P06756+P18084); experiment: as above; type: binding; conditions: 0.06 nM 125I echistatin, 5 nM and 50 nM peptide
Outline: as §3

| Compound | PET tumor targeting / imaging signal, in words (U87MG tumor) | integrin binding compared in words (αvβ3 integrin [1]) | tumor uptake / imaging signal of Cy5.5-labeled peptide, in words [2] | IC50 (U87MG glioblastoma cells [3]) | IC50 ([4]; Cy5.5-labeled peptides (Cy5.5: Yes)) | IC50 ([4]; unlabeled peptides (Cy5.5: No)) | Kd (αvβ3 integrin [5]) | IC50 (K562-αvβ3 cells) | blocking of U87MG cell adhesion to fibronectin, in words (U87MG glioblastoma cells [6]) | binding to α5β1 integrin, in words (α5β1 integrin) | binding to αiibβ3 integrin, in words (αiibβ3 integrin) | binding to αvβ3 integrin, in words (αvβ3 integrin [7]) | binding to αvβ5 integrin, in words (αvβ5 integrin) |
| --- | --- | --- | --- | --- | --- | --- | --- | --- | --- | --- | --- | --- | --- |
| CC(C)C[C@@H]1NC(=O)[C@@H]2CSSC[C@@H](C(=O)NCC(=O)O)NC(=O)[C@H](Cc3ccccc3)NC(=O)CNC(=O)[C@H](CC(N)=O)NC(=O)[C@@H]3CCCN3C(=O)CNC(=O)[C@@H]3CSSC[C@H](NC(=O)[C@H](CO)NC(=O)[C@H](CO)NC(=O)[C@H](C)NC(=O)[C@@H]4CCCN4C(=O)[C@H](CO)NC(=O)[C@H](CC(=O)O)NC(=O)CNC(=O)[C@H](CCCNC(=N)N)NC(=O)CNC(=O)[C@H]([C@@H](C)O)NC(=O)[C@H](C(C)C)NC(=O)[C@@H](NC(=O)CN)CSSC[C@H](NC(=O)CNC(=O)[C@H](C)NC1=O)C(=O)N[C@@H](C(C)C)C(=O)N3)C(=O)N[C@@H](CCCCN)C(=O)N[C@@H](CCC(N)=O)C(=O)N[C@@H](CC(=O)O)C(=O)N[C@@H](CO)C(=O)N[C@@H](CC(=O)O)C(=O)N2 [RGD-EETI#3] (H-GCVTGRGDSPASSCKQDSDCLAGCVCGPNGFCG-OH; disulfide 2-24, 14-26, 20-32; N-terminus and C-terminus assumed) | significantly weaker imaging signals | binds better than the 10th domain of fibronectin | significantly weaker imaging signals | – | – | – | – | – | – | – | – | – | – |
| ECESGPCCRNCKFLKEGTICKRARGDDMDDYCNGKTCDCPRNPHKGPAT (disulfide 2-11, 7-32, 8-37, 20-39 (inferred)) [Echistatin, echistatin] | – | – | – | 5.8 nM | 2.6 ± 0.2 nM | 4.9 ± 1 nM | 0.3 nM | 3.2 ± 2.7 nM | blocked adhesion; also recorded: able to block | binds strongly; also recorded: bound strongly | binds strongly; also recorded: bound strongly | binds strongly; also recorded: bound strongly | binds strongly; also recorded: bound strongly |
